# Reference: publication PMC1892040 (PLoS Medicine, 2007)
# Values joined by “and” are separate entries in the source; they are usually repeats but may differ in a detail not shown here. Equal values may be shown once. “Also recorded” adds a separate entry of the source. Read-outs that look alike come from different tables or passages of the source.
# Tests used:
# [1] = tested on: GSH:GSSG ratio; assay: GSH:GSSG ratio in treated worms; assay type: cell-based, Schistosoma mansoni; conditions: after 6 h of treatment with 10 μM AF
# Procedure: AF was dissolved in DMSO and added to freshly perfused worms in DMEM to 10 μM. Control worms were treated with equal amounts of carrier. Worms were subsequently observed for unpairing, motility, and mortality, and were collected at the indicated time intervals for analysis. Worms were homogenized by sonication in PBS and homogenates were assayed for TrxR and GR activities as described above. […] Each assay was done in triplicate and each experiment was done three times.
# [2] = molecular target: T1, S. mansoni TGR (Schistosoma mansoni, UniProt Q962Y6); assay: IC50, Grx activity of TGR (HED assay), 15 min preincubation; assay type: biochemical; design: The entire TGR ORF plus the SECIS element was subcloned into pET-24a; made in house; host or cells: Escherichia coli BL21(DE3) with pSUABC; conditions: 8 mM HED plus 1 mM GSH, 15 min preincubation with 100 μM NADPH
# T1 sequence (Q962Y6 1-598): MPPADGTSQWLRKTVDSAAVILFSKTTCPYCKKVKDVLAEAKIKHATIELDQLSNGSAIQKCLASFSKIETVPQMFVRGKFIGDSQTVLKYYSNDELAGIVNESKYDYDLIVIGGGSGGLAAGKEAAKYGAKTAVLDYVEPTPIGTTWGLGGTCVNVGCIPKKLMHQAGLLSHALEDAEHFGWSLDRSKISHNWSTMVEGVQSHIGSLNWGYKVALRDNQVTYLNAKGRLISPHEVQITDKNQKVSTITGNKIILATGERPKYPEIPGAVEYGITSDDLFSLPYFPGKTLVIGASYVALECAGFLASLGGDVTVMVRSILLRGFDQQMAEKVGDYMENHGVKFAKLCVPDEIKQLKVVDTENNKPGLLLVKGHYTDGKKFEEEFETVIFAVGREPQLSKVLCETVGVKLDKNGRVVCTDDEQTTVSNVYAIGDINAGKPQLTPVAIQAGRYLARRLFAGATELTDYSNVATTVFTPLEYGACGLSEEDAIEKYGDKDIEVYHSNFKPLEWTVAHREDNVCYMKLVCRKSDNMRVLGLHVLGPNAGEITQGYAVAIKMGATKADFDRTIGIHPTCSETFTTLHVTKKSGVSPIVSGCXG
# Procedure: (§1) Assays were performed at 25 °C in 0.1 M potassium phosphate (pH 7.4), 10 mM EDTA using 100 μM NADPH unless otherwise stated.
# (§2) Initial inhibitor screens were conducted in 200 μl volumes in 96 well plates with 50 μM inhibitor, 100 μM NADPH, and 5 nM TGR in 0.1 M potassium phosphate (pH 7.4), 10 mM EDTA with a preincubation step of 15 min. […] All assays were done in triplicate.
# [3] = tested on: schistosomula; assay: Schistosomula survival after RNAi and/or drug treatment; assay type: cell-based, Schistosoma mansoni; conditions: AF at 2 μM; TGR dsRNA
# Procedure: Cercariae were mechanically transformed to schistosomula by vortexing, and bodies were separated from tails by Percoll gradient centrifugation as described [13]. Immediately after transformation, TGR dsRNA or irrelevant dsRNA (each at 54 μg/ml) was added to ~500 schistosomula in 50 μl water followed by incubation at 37 °C for 30 min. After addition of 250 μl of RPMI-1640 medium, 300 U/ml penicillin, and 175 μg/ml streptomycin, parasites were incubated at 37 °C in 5% CO2 atmosphere for 4 d. Reduced O2 tension was obtained by filtering media and purging with 95% N2, 5% CO2 for 20 min before use. Parasites were cultured during the course of the experiment in the appropriate gaseous mix at 37 °C in a sealed modular incubator chamber (Billups-Rothenberg, http://www.brincubator.com) flushed with the same gaseous mix. On day 2 of the experiment, 50 μl of fresh media was added. Schistosomula were assessed daily for viability by microscopy. For each time point at least 1,500 parasites were scored as alive or dead in each experiment (three replicates of 500 each), and each experiment was repeated three times.
# (B) Parasites were cultured in the presence of double-stranded TGR RNA (dashed lines) or of double-stranded irrelevant RNA (solid lines) in 20% O2 (♦) or 0% O2 (). […] (C) Combination of RNAi and drug treatments. Solid lines are irrelevant dsRNA treatments and dashed lines are dsTGR treatments; no additions (♦), 2 μM praziquantel () and 2 μM AF (▴). […] In each experiment for each time point at least 1,500 parasites were scored as alive or dead (three replicates of 500 parasites). The error bars represent the standard deviations of three independent experiments.
# [4] = molecular target: T2, Human GR (Homo sapiens, UniProt P00390); conditions: read-out: IC50 Human GR, GSSG; cited from earlier work
# T2 sequence (P00390 44-522): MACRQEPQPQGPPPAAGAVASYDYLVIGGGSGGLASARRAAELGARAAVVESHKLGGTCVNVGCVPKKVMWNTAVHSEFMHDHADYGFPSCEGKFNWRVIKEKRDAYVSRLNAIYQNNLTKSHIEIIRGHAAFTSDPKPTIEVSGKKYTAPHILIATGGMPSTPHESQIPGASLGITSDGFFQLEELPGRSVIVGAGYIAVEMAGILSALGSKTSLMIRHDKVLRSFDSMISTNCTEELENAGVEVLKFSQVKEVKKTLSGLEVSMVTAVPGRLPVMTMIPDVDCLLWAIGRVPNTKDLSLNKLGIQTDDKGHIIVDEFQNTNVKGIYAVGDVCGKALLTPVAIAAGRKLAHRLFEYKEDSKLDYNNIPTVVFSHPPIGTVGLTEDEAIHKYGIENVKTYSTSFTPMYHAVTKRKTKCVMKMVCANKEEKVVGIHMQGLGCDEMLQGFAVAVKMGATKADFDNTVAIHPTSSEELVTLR
# [5] = molecular target: T1, S. mansoni TGR; assay type: biochemical; design: The entire TGR ORF plus the SECIS element was subcloned into pET-24a; made in house; host or cells: Escherichia coli BL21(DE3) with pSUABC; conditions: read-out: IC50 S. mansoni TGR, DTNB (TrxR activity); 3 mM DTNB, 15 min preincubation with 100 μM NADPH
# Procedure: as §1, §2
# [6] = molecular target: T3, Human TrxR (Homo sapiens, UniProt Q16881); conditions: read-out: IC50 Human TrxR, DTNB/Trx; cited from earlier work
# T3 sequence (Q16881 1-499 isoform Q16881-5): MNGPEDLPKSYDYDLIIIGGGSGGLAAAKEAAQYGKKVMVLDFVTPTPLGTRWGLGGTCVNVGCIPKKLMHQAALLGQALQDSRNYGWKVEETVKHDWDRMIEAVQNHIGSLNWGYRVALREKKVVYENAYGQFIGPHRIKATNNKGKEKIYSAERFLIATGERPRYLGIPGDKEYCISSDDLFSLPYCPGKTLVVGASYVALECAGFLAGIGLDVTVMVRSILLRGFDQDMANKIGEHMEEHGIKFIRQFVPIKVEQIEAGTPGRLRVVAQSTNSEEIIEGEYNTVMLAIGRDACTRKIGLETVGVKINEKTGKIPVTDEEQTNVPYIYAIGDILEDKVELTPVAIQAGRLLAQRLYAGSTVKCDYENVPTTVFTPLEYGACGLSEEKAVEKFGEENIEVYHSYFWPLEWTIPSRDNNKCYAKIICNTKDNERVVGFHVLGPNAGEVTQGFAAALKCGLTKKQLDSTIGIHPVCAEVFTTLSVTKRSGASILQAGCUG
# [7] = tested on: mammalian cells; design: method as in PMID 14561156; conditions: cultured in 10 μM AF; cited from earlier work
# [8] = tested on: S. mansoni; assay: Inhibitor studies on infected mice (worm burden); assay type: in vivo, Schistosoma mansoni; conditions: for Total Worm Burden, Number of Worms, Mean ± SD / Total Worm Burden Reduction: 6 mg/kg twice daily for 9 d; for Total Worm Burden, Number of Worms, Mean ± SD: intraperitoneally; for Total Worm Burden Reduction: versus control, 6 mg/kg
# Procedure: Mice (14-wk-old females; C57BL/6 in experiment 1, NIH-Swiss in experiment 2) infected with 60 S. mansoni cercariae were injected intraperitoneally with 6 mg/kg of AF twice daily for 9 d, beginning 7 wk post infection. Infected control mice were injected with equal amounts of carrier. Mice were perfused 1 wk after the final dose of AF and worm burdens were determined.
# [9] = tested on: GSH peroxidase (GPx); assay: GPx activity in homogenates of treated worms; assay type: cell-based, Schistosoma mansoni; conditions: 10 μM AF
structure (smiles),measurement,setting,value
"CC(=O)OC[C@H]1O[C@@H]([S-])[C@H](OC(C)=O)[C@@H](OC(C)=O)[C@@H]1OC(C)=O.CCP(CC)CC.[Au+] [AF, auranofin]",Decrease of GSH:GSSG ratio,[1],85%
same,IC50,[2],6 nM
same,Schistosomula survival after 1 d,[3],93.7%
same,Schistosomula survival after 2 d,[3],66.1%
same,IC50,[4],40 µM
same,IC50,[5],7 nM
same,IC50,[6],20 nM
same,Viability of mammalian cells,[7],over 95%
same,"Total Worm Burden, Number of Worms, Mean ± SD",[8]; C57BL/6 mice,12 ± 7.8
same,Total Worm Burden Reduction,"[8]; C57BL/6 mice, p < 0.015",59% and 59^a %
same,"Total Worm Burden, Number of Worms, Mean ± SD",[8]; NIH-Swiss mice,8.6 ± 1.7
same,Total Worm Burden Reduction,"[8]; NIH-Swiss mice, p < 0.001",63% and 63^b %
same,Worm burden reductions in infected mice,[8]; summary value of abstract,60% and ~ 60%
same,GPx activity in worm homogenates,[9],no significant deviation from controls; also recorded: not inhibited
